The values below are quoted from earlier work in patent US20030149013A1, “Methods of treating bacterial infections in dogs and cats” (priority 2001, published 2003).

Like-named read-outs stand apart in the source and are kept apart here.

The conditions of series [1]: dog.

Take `CC1=C(C(=O)O)N2C(=O)[C@@H](NC(=O)[C@H](N)C3=CCC=CC3)[C@H]2SC1` [Cephadrine]: the “Canine t1/2” value in series [1] (PO (per os)) is recorded as 3.64 (P0) h. The “Rat t1/2” value (PO (per os)) is listed as 0.82 (PO) h.
On to `O=C(Cc1cccs1)N[C@@H]1C(=O)N2C(C(=O)[O-])=C(C[n+]3ccccc3)CS[C@H]12` [Cephalordine], for which, in series [1] (IM (intramuscular)), the “Canine t1/2” value is on record as 0.97 (IM) h. In addition, the “Rat t1/2” value (IM (intramuscular)) was 0.5 (IM) h.
